From ChEMBL document CHEMBL1201862, “PubChem BioAssay data set” (2004)
Calls of active or inactive are those of the source.

What was measured:
[1] = target: T1, Replicative DNA helicase DnaB (Mycobacterium tuberculosis, UniProt P9WMR3); test: DnaB intein splicing inhibitors, dose response, biochemical, cell-free fluorescence (AID 449749); type: functional
T1 sequence (P9WMR3 whole entry): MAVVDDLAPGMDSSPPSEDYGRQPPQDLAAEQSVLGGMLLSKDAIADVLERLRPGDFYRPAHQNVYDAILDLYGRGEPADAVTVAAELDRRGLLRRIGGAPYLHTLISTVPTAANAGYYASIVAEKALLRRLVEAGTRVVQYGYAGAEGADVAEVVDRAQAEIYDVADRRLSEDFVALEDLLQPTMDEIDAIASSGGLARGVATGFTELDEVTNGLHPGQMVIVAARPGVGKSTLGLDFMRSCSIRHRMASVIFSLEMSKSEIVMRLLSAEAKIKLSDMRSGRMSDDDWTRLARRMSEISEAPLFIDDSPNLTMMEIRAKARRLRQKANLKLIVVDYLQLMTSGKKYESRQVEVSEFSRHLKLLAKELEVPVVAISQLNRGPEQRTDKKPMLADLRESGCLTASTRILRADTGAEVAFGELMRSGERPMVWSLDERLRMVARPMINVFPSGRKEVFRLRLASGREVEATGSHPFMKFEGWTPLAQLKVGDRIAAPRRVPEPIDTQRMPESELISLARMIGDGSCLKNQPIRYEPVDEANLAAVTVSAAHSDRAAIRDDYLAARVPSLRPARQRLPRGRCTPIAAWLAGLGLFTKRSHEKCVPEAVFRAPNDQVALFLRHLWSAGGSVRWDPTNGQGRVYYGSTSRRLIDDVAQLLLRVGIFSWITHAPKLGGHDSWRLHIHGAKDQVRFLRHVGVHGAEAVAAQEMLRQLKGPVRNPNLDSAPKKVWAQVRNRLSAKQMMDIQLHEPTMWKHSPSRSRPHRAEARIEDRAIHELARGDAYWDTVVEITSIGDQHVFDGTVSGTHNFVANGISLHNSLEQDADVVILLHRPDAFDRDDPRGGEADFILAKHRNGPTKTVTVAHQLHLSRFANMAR

[2] = NIH-3T3 fibroblast cytotoxicity, dose response, cytotoxicity control, cell-based, fluorescence, Alamar Blue, secondary assay (AID 2327); type: functional;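 further: NIH-3T3 mouse fibroblasts cultured with fluconazole at 8 µg/mL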
[3] = target: T2, Zinc finger protein mex-5 (Caenorhabditis elegans, UniProt Q9XUB2); test: potency of MEX-5 RNA-binding blockers – biochemical, C. elegans, fluorescence polarization, dose response (AID 1960)
T2 sequence (Q9XUB2 whole entry): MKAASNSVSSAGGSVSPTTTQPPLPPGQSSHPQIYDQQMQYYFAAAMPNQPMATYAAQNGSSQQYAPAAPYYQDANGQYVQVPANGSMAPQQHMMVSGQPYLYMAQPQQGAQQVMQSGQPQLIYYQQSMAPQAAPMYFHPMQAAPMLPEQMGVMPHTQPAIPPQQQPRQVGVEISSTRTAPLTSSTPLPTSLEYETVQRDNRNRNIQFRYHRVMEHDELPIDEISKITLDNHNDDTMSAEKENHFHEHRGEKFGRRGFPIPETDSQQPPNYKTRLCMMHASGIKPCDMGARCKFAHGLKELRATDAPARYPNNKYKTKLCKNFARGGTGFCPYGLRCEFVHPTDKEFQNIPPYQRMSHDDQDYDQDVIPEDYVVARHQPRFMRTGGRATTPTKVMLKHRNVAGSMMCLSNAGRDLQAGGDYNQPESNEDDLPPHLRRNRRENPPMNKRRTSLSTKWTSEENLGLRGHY

Protein RecA = target: T3, Protein RecA (Mycobacterium tuberculosis, UniProt P9WHJ3); test: Fluorescence Cell-Free Homogeneous Dose Retest to Identify Inhibitors of RecA-Intein Splicing Activity. [Related pubchem assays (depositor defined):AID2097, AID2223, AID489010, AID492950]; type: functional
T3 sequence (P9WHJ3 whole entry): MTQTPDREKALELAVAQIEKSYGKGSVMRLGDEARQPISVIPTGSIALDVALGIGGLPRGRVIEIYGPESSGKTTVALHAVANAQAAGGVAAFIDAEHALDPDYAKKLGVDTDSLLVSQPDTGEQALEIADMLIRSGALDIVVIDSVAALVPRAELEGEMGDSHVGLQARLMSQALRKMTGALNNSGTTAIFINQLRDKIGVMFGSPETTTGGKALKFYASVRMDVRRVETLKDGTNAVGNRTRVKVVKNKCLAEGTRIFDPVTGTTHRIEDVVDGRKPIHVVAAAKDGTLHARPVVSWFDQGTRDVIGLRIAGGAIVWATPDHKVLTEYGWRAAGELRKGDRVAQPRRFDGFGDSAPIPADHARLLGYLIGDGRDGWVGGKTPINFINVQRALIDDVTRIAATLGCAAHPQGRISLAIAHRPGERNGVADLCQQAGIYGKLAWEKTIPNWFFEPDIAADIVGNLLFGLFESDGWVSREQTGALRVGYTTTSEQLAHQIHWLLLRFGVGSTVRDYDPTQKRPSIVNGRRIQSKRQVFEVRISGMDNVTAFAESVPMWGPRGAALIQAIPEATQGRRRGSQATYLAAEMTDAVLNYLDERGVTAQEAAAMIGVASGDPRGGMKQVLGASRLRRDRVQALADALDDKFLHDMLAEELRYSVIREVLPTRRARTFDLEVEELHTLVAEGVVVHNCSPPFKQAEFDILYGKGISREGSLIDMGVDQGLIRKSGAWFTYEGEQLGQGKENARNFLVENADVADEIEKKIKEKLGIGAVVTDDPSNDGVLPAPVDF

[4] = fluconazole-exposed Candida albicans growth modulators – fluorescence, retest, confirmation (AID 2467); type: functional, cell-based
[5] = target: T4, RNA-binding protein pos-1 (Caenorhabditis elegans, UniProt G5EF15); test: disruptors of C. elegans POS-1 RNA interaction – biochemical, fluorescence polarization, dose response (AID 1964);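 further: purified POS-1 fused to maltose binding protein made in E. coli; potency of compounds blocking POS-1 binding to fluorescent RNA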
T4 sequence (G5EF15 whole entry): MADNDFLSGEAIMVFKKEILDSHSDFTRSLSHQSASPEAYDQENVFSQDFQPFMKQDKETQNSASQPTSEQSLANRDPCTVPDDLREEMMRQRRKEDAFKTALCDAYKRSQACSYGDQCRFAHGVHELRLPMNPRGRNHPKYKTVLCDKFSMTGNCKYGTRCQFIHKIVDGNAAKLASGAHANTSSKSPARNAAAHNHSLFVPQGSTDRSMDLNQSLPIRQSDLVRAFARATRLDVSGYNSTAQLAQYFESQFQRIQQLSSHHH

[6] = HGIII-sPLA2 enzyme inhibition potency – biochemical, QFRET, IC50, dose response (AID 743457);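 further: green fluorescence rise as the enzyme cleaves BODIPY PC-A2 in liposomes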
Albumin = Albumin (Bos taurus, UniProt P02769); test: Counterscreen for inhibitors of T-cell receptor (TCR)-CD3 interaction: Fluorescence-based biochemical high throughput dose response assay to identify inhibitors of T-cell receptor (TCR)-CD3 interaction using a TAMRA-labeled BSA probe.; type: functional
[7] = toxicity toward HepG2 liver cells – cell-based, plate reader, cherry-pick, antagonist series, cytotoxicity control, dose response (AID 743416); type: functional
[8] = Luminescence Cell-Based Dose Confirmation HTS to Identify Inhibitors of Platelet Dense Granule Release. [Related pubchem assays: 1663 (Primary HTS), 1678 (Summary of Project)]; type: functional
Protein skinhead-1 = target: T5, Protein skinhead-1 (Caenorhabditis elegans, UniProt P34707); type: functional
T5 sequence (P34707 whole entry): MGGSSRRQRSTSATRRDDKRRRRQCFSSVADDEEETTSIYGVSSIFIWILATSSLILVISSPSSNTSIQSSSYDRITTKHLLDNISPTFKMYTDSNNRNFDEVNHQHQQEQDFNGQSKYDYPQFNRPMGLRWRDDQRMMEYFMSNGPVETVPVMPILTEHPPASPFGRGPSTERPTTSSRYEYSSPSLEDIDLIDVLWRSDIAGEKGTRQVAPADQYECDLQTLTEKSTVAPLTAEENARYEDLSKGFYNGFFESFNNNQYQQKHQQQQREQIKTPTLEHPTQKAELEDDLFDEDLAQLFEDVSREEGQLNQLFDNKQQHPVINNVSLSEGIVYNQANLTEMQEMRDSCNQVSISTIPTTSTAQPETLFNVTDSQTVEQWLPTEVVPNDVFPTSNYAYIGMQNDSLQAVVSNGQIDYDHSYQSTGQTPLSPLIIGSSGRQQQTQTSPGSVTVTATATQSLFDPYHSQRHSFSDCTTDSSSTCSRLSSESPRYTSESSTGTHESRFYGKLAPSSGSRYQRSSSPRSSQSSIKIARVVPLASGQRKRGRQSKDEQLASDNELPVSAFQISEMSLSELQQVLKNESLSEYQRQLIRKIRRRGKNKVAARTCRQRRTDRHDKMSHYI

[9] = blockers of bursicon-stimulated LGR2 cAMP reporter – cell-based, HEK293, CRE-luciferase reporter, cherry pick, set 2, dose response (AID 743343); type: functional;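 further: transfected cells were stimulated with diluted bursicon conditioned medium after compound addition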
[10] = blockade of melanocortin 4 receptor signaling – cell-based, plate reader, cherry pick, counter-screen for LGR2 antagonist project, dose response (AID 743444); type: functional;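 further: transfected HEK 293 cells stimulated with alpha-MSH peptide; potency of inhibitors of the alpha-MSH evoked signal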
[11] = viability loss in HEK293 cells – cell-based, plate reader, cherry-picked samples, cytotoxicity control, dose response (AID 743446); type: functional
[12] = A549 cell cytotoxicity, dose response, cytotoxicity control, plate reader, cherry-pick, antagonist series (AID 743412); type: functional, cell-based
[13] = target: Luciferin 4-monooxygenase (Photinus pyralis, UniProt P08659); test: inhibition of purified Photinus pyralis luciferase – biochemical, luminescence, dose response (AID 1891)
BJ [14] = test: BJ-TERT fibroblast viability loss – cell-based, RAS-independent, luminescence, dose response (AID 1933); type: functional; conditions: Homo sapiens
BJ [15] = test: BJ-TERT-LT-ST fibroblast viability loss – cell-based, RAS-independent, luminescence, dose response (AID 1935); type: functional; conditions: Homo sapiens;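 further: BJ fibroblasts immortalized with TERT plus LT and ST oncogenes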
[16] = DRD fibroblast viability loss – cell-based, non-viral oncogenic, luminescence, dose response (AID 1934); type: functional; conditions: Homo sapiens
BJ [17] = test: cells; type: functional, cell-based; conditions: Homo sapiens

Chain of Luciferin 4-monooxygenase (P08659 whole entry): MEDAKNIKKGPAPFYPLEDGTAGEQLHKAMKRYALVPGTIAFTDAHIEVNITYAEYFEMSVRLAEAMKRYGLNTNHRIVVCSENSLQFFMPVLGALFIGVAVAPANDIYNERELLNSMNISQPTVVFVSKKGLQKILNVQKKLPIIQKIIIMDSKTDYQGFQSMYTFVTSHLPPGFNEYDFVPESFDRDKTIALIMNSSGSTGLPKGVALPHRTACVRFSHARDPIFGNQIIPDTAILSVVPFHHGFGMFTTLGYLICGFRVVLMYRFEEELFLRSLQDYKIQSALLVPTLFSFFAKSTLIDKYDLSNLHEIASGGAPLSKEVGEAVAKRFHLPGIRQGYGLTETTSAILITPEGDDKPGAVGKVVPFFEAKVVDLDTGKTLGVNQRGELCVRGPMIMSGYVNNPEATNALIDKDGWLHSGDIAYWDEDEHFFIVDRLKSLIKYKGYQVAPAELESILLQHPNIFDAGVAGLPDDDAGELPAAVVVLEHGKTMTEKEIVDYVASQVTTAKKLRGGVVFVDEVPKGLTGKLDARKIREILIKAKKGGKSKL
Chain of Albumin (P02769 whole entry): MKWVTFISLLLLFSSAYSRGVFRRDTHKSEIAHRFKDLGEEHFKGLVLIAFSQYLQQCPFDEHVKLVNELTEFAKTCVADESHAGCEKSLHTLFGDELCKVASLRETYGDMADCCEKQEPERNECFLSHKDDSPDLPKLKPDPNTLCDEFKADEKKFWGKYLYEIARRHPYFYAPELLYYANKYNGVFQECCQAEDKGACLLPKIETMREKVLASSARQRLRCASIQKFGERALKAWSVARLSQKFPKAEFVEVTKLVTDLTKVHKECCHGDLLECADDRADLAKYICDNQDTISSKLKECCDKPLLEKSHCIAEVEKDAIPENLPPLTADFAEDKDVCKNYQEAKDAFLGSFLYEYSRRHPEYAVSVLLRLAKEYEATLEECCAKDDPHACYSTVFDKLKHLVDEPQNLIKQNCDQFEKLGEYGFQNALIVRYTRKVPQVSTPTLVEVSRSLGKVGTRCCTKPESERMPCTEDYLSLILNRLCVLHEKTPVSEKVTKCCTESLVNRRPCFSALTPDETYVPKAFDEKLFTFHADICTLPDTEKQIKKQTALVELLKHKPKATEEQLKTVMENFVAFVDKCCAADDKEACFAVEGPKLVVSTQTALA

Structure (SMILES)	AC50 [1]	EC50 [2]	EC50 [3]	EC50 (Protein RecA)	EC50 [4]	EC50 [5]	IC50 [6]	IC50 (Albumin)	AC50 [7]	EC50 [8]	IC50 (Protein skinhead-1)	AC50 [9]	AC50 [10]	AC50 [11]	AC50 [12]	EC50 [13]	EC50 (BJ [14])	EC50 (BJ [15])	EC50 [16]	EC50 (BJ [17])
O=C(NNC(=O)c1ccc2ccccc2c1O)c1ccccc1Cl	30 µM (active)	> 160 µM (inactive)	2.31 µM (inconclusive)	> 380 µM (inactive)	> 38 µM (not active)	15.4 µM (inconclusive)	> 122 µM (inactive)	> 94.1 µM (inactive)												
CCOc1ccc2nc(NC(=O)c3ccco3)sc2c1									32.6 µM (active)	3.13 µM (active)	> 100 µM (inactive)	8.15 µM (active)	7.74 µM (active)	20.6 µM (active)	35.4 µM (active)	0.383 µM (active)				
O=C(Nc1ccc(-c2nc3ccccc3[nH]2)cc1)C1CCCO1 (configuration not stated)									24.7 µM (active)	1.69 µM (active)		6.14 µM (active)	6.98 µM (active)	21 µM (active)	14.1 µM (active)	1.02 µM (active)	8.39 µM (inconclusive)	22.9 µM (active)	9.19 µM (inconclusive)	16.8 µM (inconclusive)
